Where “and” joins values, the source holds several entries; their conditions need not be identical. Equal entries are not always repeated. Where two headings read alike, the source gives them in different places. Non-standard residues stand in square brackets, D forms with d. Residues, ends and D or L forms follow the SMILES beside them. Nle = CCCC[C@H](N)C(=O)O
System: SARS-CoV-2 delta variant
Assay type: cell-based
Conditions: Huh 7.5, replicates

SMILES | virus titer of delta variant, Fig 6B data (single drug 0.01 μM) | virus titer of delta variant, Fig 6B data (single drug 0.1 μM) | virus titer of delta variant, Fig 6B data (single drug 1 μM)
CCCC[C@@H](C=O)NC(=O)[C@H](CC(C)C)NC(=O)[C@H](CC(C)C)NC(C)=O [MG-101] (Ac-Leu-Leu-[Nle]-aldehyde) | 640000 and 800000 and 400000 | 400000 and 960000 and 800000 | 240000 (2×) and 160000
N[C@@H](CC(=O)N1CCn2c(nnc2C(F)(F)F)C1)Cc1cc(F)c(F)cc1F [Sitagliptin] | 960000 and 720000 and 480000 | 720000 and 400000 and 560000 | 560000 and 720000 and 64000

From publication PMC8881501, “Identification of SARS-CoV-2 inhibitors targeting Mpro and PLpro using in-cell-protease assay” (Communications Biology, 2022)
